Values of other authors, collected in patent US7456141B2, “Photo resist stripper composition” (Echem Solutions Corp., priority 2004, dated 2008).
Like-named read-outs stand apart in the source and are kept apart here.

Legend:
[1] = Table 3, route and species not given; in mg/kg
[2] = Table 3
[3] = for STEL: Short Time Exposure Limit, 15 minutes; for TWA: Time Weighted Average, eight hours a day and 40 hours a week
[4] = for Flash Point / Ignition Point / Vaporizing Speed: Table 2; for Steam Pressure: at 20 ° C. (mmHg/° C. [sic])
Rat [5] = system: Rat
Rat [6] = system: Rat; remark: listed apart in the source
Rat [7] = system: Rat; remark: listed apart in the source

For `O=C1CCCCC1` [ANONE, cyclohexanone], the LD50 [1] is given as 1535, the “Flash Point” value [2] is given as 44 °C and the “Vaporizing Point” value [2] is given as 4 °C. For the same molecule, the Viscosity [2] was 2.2 cst.

For `CC(=O)OCCC(C)C` [IAAc, Isoamyl acetate], the LD50 [1] is given as 16600, the “Flash Point” value [2] is given as 25 °C and the “Vaporizing Point” value [2] is given as 4 °C.

For `CC(=O)CC(C)C` [MIBK, Methyl isobutyl ketone], the LC50/Inhale/Mouse (Mouse) is given as “LC50/Inhale/Mouse: 23300 mg/m^3”, the STEL [3] is given as 75 ppm and the TWA [3] is given as 50 ppm. For the same molecule, the LD50/Hypodermic/Rabbit (Rabbit) was “LD50/Hypodermic/Rabbit: 20 mg/kg”, the “Flash Point” value [4] was 18 °C and the “Ignition Point” value [4] was 449 °C. For the same molecule, the “Vaporizing Speed” value [4] was 1.57, the “Steam Pressure” value [4] was 16/20 mmHg and the LC50/Inhale/Rat (Rat [5]; exposure time not given) was “LC50/Inhale/Rat: 4000 ppm”.

In the case of `COCC(C)O` (centres unmarked) [PGME, propylene glycol mono-methyl ether], the LD50 [1] is given as 6600, the TWA [3] is given as 100 ppm and the “Flash Point” value [4] is given as 32 °C. For the same molecule, the “Vaporizing Speed” value [4] was 0.66, the “Steam Pressure” value [4] was 6.7/20 mmHg and the “Flash Point” value [2] was 32 °C. For the same molecule, the “Vaporizing Point” value [2] was 11.8 °C, the Viscosity [2] was 1.8 cst and the LC50/Inhale/Rat (Rat [5]; 7 hrs.) was “LC50/Inhale/Rat: 15000 ppm (7 hrs.)”. For the same molecule, the LD50/Hypodermic/Rat (Rat [6]; hypodermic) was “LD50/Hypodermic/Rat: 13000 mg/kg” and the LD50/Oral/Rat (Rat [7]) was “LD50/Oral/Rat: 6600 mg/kg”.

For `COCC(C)OC(C)=O` (centres unmarked) [PGMEA, Propylene glycol mono-methyl ether acetate], the LD50 [1] is listed as 8532, the TWA [3] is listed as 100 ppm and the “Flash Point” value [4] is listed as 42 °C. For the same molecule, the “Ignition Point” value [4] was 354 °C, the “Vaporizing Speed” value [4] was 0.34 and the “Steam Pressure” value [4] was 3.8/20 mmHg. The “Flash Point” value [2] was 47 °C, the “Vaporizing Point” value [2] was 3.8 °C and the Viscosity [2] was 1.1 cst. The LC50/Inhale/Rat (Rat [5]; 6 hrs.) was “LC50/Inhale/Rat: 4345 ppm (6 hrs.)”, the LD50/Hypodermic/Rat (Rat [6]; in vivo) was “LD50/Hypodermic/Rat: 5000 mg/kg” and the LD50/Oral/Rat (Rat [7]) was “LD50/Oral/Rat: 8532 mg/kg”.

In the case of `CCCCOC(C)=O` [nBAc, n-Butyl Acetate], the LD50 [1] is listed as 13100, the STEL [3] is listed as 200 ppm and the TWA [3] is listed as 150 ppm. For the same molecule, the “Flash Point” value [4] was 22 °C, the “Ignition Point” value [4] was 425 °C and the “Vaporizing Speed” value [4] was 0.98. For the same molecule, the “Steam Pressure” value [4] was 7.8/20 mmHg, the “Flash Point” value [2] was 22 °C and the “Vaporizing Point” value [2] was 15 °C. The Viscosity [2] was 0.7 cst and the LC50/Inhale/Rat (Rat [5]; 4 hrs.) was “LC50/Inhale/Rat: 2000 ppm (4 hrs.)”.
